The values that follow come from patent US20090169643A1, “Composition for Enhancing Immune Function” (priority 2006, published 2009).

Test [1] deals with human peripheral mononuclear cells. Kind of test: Metabolic activity of human peripheral mononuclear cells (WST-1 formazan, 48 h culture), Test Example 3. In kind it is cell-based. The procedure: In the same manner as in Test Example 1, the synergic effect of nigerooligosaccharide and zinc on the metabolic activity of human peripheral mononuclear cells was assessed using nigerooligosaccharide and zinc. After 20 ml of blood collected from each healthy male adult was diluted 2-fold with calcium- and magnesium-free phosphate buffered saline (PBS), the diluted blood sample was overlaid onto 30 ml of a Ficoll-Paque PLUS (GE Healthcare Bio-Sciences) layer so gently as not to disturb the interface, followed by centrifugation at 400×g at 20° C. for 40 minutes. After the centrifugation, lymphocytes and monocytes present in the intermediate layer were carefully collected in a Pasteur pipette. The collected cell suspension was washed with 10-fold PBS twice. After the obtained mononuclear cells were counted with an automatic blood cell counter (Sysmex Corporation: type CDA-500), the suspension was adjusted to a concentration of 2×10^6 cells/ml in RPMI1640 culture medium supplemented with 10% fetal bovine serum, streptomycin and penicillin, and plated in a volume of 50 μl per well into a 96-well culture plate. […] The formazan concentration was determined from absorbance at a measurement wavelength of 415 nm (reference wavelength of 630 nm) using a microplate reader (Corona Electric Co., Ltd.: Type MTP-32).
The values in Table 3 represent absorbance at 415 nm as means±SD of triplicate wells. […]

For test [2], the system named is spleen cell suspension of immunocompetent cells. Kind of test: Metabolic activity of mouse immunocompetent cells (WST-1 formazan, 48 h culture), Test Example 1. Type of test: cell-based, Balb/c mice. The text has this:
Zinc was used in the form of zinc sulfate dissolved in distilled water. Spleens were aseptically harvested from ten-week-old female Balb/c mice, teased in RPMI1640 culture medium (GIBCO) supplemented with streptomycin and penicillin (SIGMA), and then passed through a #200 mesh screen to obtain spleen cell suspension of immunocompetent cells. After counting the cells in the spleen cell suspension with an automatic blood cell counter (Sysmex Corporation: type CDA-500), the suspension was adjusted to a concentration of 1×10^7 cells/ml in the above-mentioned RPMI1640 culture medium and plated in a volume of 50 μl per well into a 96-well culture plate. Concanavalin A (SIGMA), a cell-growth stimulating factor, was dissolved in the above-mentioned RPMI1640 culture medium, and 50 μl of the Concanavalin A solution was added to the cell suspension in each well to give a final concentration of 2.0 μg/ml. Additionally, zinc and nigerooligosaccharide were separately dissolved in the above-mentioned RPMI1640 culture medium. […] The formazan concentration was determined from absorbance at a measurement wavelength of 415 nm (reference wavelength of 630 nm) using a microplate reader (Corona Electric Co., Ltd.: Type MTP-32). The values in Table 1 represent absorbance at 415 nm as means±SD of triplicate wells. […]

Test [3] has the same test system. Put plainly: Metabolic activity of mouse immunocompetent cells during prolonged culture (WST-1 formazan, 144 h), Test Example 2. As to conditions: for absorbance at 415 nm (formazan, index of metabolic activity): nigerooligosaccharide 0 ng/ml, Concanavalin A 0.4 μl/ml, 144 hours, mean of triplicate to hexylicate wells. Type of test: cell-based, Balb/c mice. The procedure: In this Test Example, the effect of the combined use of nigerooligosaccharide and zinc on the metabolic activity of immunocompetent cells during prolonged culture was assessed using nigerooligosaccharide and zinc in the same manner as Test Example 1. Spleens were aseptically harvested from ten-week-old female Balb/c mice, teased in RPMI1640 culture medium (GIBCO) supplemented with streptomycin and penicillin (SIGMA), and then passed through a #200 mesh screen to obtain spleen cell suspension of immunocompetent cells. After counting the cells in the spleen cell suspension with an automatic blood cell counter (Sysmex Corporation: type CDA-500), the suspension was adjusted to a concentration of 1×10^7 cells/ml in the above-mentioned RPMI1640 culture medium and plated in a volume of 50 μl per well into a 96-well culture plate. Concanavalin A (SIGMA), a cell-growth stimulating factor, was dissolved in the above-mentioned RPMI1640 culture medium, and 50 μl of the Concanavalin A solution was added to the cell suspension in each well to give a final concentration of 0.4 μl/ml. Additionally, zinc and nigerooligosaccharide were separately dissolved in the above-mentioned RPMI1640 culture medium. 50 μl of the zinc solution was added to each well to give a final concentration of 0, 1 or 2 ng/ml, and similarly, 50 μl of the nigerooligosaccharide solution was added to each well to give a final concentration of 0 or 1000 ng/ml. Thus-prepared immunocompetent cells were cultured in an incubator with 5% CO2 at 37° C. for 144 hours. […] The formazan concentration was determined from absorbance at a measurement wavelength of 415 nm (reference wavelength of 630 nm) using a microplate reader (Corona Electric Co., Ltd.: Type MTP-32).
The values in Table 2 represent absorbance at 415 nm as means of triplicate to hexylicate wells.

For `O=S(=O)([O-])[O-].[Zn+2]` [zinc, zinc sulfate], the “metabolic activity of human immunocompetent cells (in words)” value in test [1] (summary of Table 3, proportion 1:1000) is recorded as “hardly raised the metabolic activity”. For the same compound, the “absorbance at 415 nm (formazan, index of metabolic activity)” value was 0.348 ± 0.003 in test [1] (zinc 10 ng/ml, nigerooligosaccharide 0 μg/ml, Concanavalin A 2.0 μg/ml, 48 hours, mean±SD of triplicate wells); 0.815 ± 0.013 in test [2] (zinc 1 ng/ml, nigerooligosaccharide 0 ng/ml, Concanavalin A 2.0 μg/ml, 48 hours, mean±SD of triplicate wells); 0.793 in test [3] (zinc 1 ng/ml); 0.786 in test [3] (zinc 2 ng/ml). Also, the “metabolic activity of mouse immunocompetent cells (in words)” value in test [2] (summary of Table 1, 48 hours culture) is “hardly raised the metabolic activity”. In addition, the “metabolic activity of mouse immunocompetent cells during prolonged culture (in words)” value in test [3] (summary of Table 2, 144 hours culture, proportion 1:1000 or 1:500) is reported as “hardly raised the metabolic activity”.
